Source: article PMC7322544, “Combining an in silico proarrhythmic risk assay with a tPKPD model to predict QTc interval prolongation in the anesthetized guinea pig assay” (Toxicology and Applied Pharmacology, 2020)

Test system: QTc interval
Experiment: Anesthetized cardiovascular guinea pig (CVGP) assay
Format: in vivo
Description: Briefly, male Hartley guinea pigs (BW: 350–500 g) were anesthetized with a bolus mixture of ketamine/xylazine (85/5 mg kg^− 1, IM) then an intravenous (iv) infusion of ketamine/xylazine (40/0.5 mg kg^− 1 h^− 1, to effect). The jugular vein and left carotid arteries were cannulated for test article administration and arterial blood pressure (BP) monitoring and blood collection, respectively. The body surface electrocardiogram (ECG) was measured via subcutaneous needle electrodes to record modified lead-II ECG. After surgery, anesthetized GPs were stabilized for a minimum of 10 min before beginning baseline data collection. Solutions of 3 varying test-article concentrations suitable for administering selected doses were prepared in appropriate vehicles. Vehicle alone or test-article solutions were administered i.v. with each dose level infused over a 20-min period. Each test article and vehicle were evaluated in ≥ n = 3 male anesthetized GPs. Blood sampling for pharmacokinetic analysis was taken at 10 and 19 min of each dose level.

Structure (SMILES): COc1c(N2C[C@@H]3CCCN[C@@H]3C2)c(F)cc2c(=O)c(C(=O)O)cn(C3CC3)c12 [NCE 7, moxifloxacin]
- CVGP QTc EC5 (anesthetized guinea pig, free plasma concentration causing 5% increase in QTc interval, > = highest free plasma concentration tested without QTc prolongation): 12 µM
- CVGP QTc EC5 (free plasma concentration): 15 µM
- Guinea pig QTc EC5 (free plasma concentration giving 5% QTc increase, > = above highest free plasma concentration tested, no QTc prolongation, i.v. infusion): 15 µM
